Laboratory results: patent publication US20210387978A1, “CYCLOBUTYL DIHYDROQUINOLINE SULFONAMIDE COMPOUNDS” (AMGEN INC., priority 2020, published 2021)

Tests used:
CYP3A4 = test: Human CYP 3A4 Induction Assay (mRNA, cryopreserved human hepatocytes); format: in vitro ADME; conditions: 10 uM test compound, 72 hours, percent of control (POC), rifampin positive control
Source text: Human CYP 3A4 Induction Assay

Human Nav1.7 = target: T1, Human Nav1.7 (Homo sapiens, UniProt Q15858); test: IonWorks Barracuda (IWB) automated patch clamp assay; format: cell-based; conditions: human Nav1.7 currents, HEK cells, population patch-clamp, state- and use-dependent voltage protocol; read-out: hNaV1.7 IWB-U IC50
T1 construct: expressed in transfected cells; host or cells: Spiking HEK cells (without Kir2.1 transfection)
Protocol: Ionaworks Barracuda […] Automated Patch Clamp Assay (Same Protocol for Both Human and Mouse)
Human Nav1.7 currents were recorded in population patch-clamp mode with the IWB automated electrophysiology system (Molecular Devices, LLC, Sunnyvale, Calif.). Spiking HEK cells (without Kir2.1 transfection) were cultured and prepared for recordings as previously described for IonWorks Quattro testing^1. The external solution consisted of the following (in mM): NaCl 140, KCl 5, CaCl2 2, MgCl2 1, HEPES 10, and glucose 11, pH 7.4, with N-methyl-D-glucamine at 320 mOsmol. […] From a holding potential of −110 mV, currents were elicited by a train of 26 depolarizations of 150 ms duration to −20 mV at a frequency of 5 Hz. Cells were then clamped to −20 mV for a period of 4 minutes in the presence of a single concentration of test compound. Following this compound incubation period, cells were clamped to −110 mV for three seconds to recover unbound channels and put through the same 26 pulse voltage protocol as above. Peak inward current during the 26th pulse to −20 mV in the presence of compound was divided by the peak inward current evoked by the 26th pulse to −20 mV in the absence of compound to determine percent inhibition. Concentration-response curves of percent inhibition as a function of concentration were generated to calculate IC50 values as described in Kornecook, T. J.; Yin, R.; Altmann, S.; et al. Pharmacologic Characterization of AMG8379, a Potent and Selective Small Molecule Sulfonamide Antagonist of the Voltage-Gated Sodium Channel NaV1. 7.
The potency of the compounds of the present invention were evaluated on human Nav1.7 channels using the above described IonWorks Barracuda automated electrophysiology platform that evaluates the ability of compounds to block sodium conductance through Nav1.7 channels. A voltage-protocol that prosecutes both state-dependent as well as use-dependent inhibition was used as these modes of action are thought to be more relevant for the native state of Nav1.7 channels in pain sensing neurons in vivo.

T1 sequence (Q15858 whole entry): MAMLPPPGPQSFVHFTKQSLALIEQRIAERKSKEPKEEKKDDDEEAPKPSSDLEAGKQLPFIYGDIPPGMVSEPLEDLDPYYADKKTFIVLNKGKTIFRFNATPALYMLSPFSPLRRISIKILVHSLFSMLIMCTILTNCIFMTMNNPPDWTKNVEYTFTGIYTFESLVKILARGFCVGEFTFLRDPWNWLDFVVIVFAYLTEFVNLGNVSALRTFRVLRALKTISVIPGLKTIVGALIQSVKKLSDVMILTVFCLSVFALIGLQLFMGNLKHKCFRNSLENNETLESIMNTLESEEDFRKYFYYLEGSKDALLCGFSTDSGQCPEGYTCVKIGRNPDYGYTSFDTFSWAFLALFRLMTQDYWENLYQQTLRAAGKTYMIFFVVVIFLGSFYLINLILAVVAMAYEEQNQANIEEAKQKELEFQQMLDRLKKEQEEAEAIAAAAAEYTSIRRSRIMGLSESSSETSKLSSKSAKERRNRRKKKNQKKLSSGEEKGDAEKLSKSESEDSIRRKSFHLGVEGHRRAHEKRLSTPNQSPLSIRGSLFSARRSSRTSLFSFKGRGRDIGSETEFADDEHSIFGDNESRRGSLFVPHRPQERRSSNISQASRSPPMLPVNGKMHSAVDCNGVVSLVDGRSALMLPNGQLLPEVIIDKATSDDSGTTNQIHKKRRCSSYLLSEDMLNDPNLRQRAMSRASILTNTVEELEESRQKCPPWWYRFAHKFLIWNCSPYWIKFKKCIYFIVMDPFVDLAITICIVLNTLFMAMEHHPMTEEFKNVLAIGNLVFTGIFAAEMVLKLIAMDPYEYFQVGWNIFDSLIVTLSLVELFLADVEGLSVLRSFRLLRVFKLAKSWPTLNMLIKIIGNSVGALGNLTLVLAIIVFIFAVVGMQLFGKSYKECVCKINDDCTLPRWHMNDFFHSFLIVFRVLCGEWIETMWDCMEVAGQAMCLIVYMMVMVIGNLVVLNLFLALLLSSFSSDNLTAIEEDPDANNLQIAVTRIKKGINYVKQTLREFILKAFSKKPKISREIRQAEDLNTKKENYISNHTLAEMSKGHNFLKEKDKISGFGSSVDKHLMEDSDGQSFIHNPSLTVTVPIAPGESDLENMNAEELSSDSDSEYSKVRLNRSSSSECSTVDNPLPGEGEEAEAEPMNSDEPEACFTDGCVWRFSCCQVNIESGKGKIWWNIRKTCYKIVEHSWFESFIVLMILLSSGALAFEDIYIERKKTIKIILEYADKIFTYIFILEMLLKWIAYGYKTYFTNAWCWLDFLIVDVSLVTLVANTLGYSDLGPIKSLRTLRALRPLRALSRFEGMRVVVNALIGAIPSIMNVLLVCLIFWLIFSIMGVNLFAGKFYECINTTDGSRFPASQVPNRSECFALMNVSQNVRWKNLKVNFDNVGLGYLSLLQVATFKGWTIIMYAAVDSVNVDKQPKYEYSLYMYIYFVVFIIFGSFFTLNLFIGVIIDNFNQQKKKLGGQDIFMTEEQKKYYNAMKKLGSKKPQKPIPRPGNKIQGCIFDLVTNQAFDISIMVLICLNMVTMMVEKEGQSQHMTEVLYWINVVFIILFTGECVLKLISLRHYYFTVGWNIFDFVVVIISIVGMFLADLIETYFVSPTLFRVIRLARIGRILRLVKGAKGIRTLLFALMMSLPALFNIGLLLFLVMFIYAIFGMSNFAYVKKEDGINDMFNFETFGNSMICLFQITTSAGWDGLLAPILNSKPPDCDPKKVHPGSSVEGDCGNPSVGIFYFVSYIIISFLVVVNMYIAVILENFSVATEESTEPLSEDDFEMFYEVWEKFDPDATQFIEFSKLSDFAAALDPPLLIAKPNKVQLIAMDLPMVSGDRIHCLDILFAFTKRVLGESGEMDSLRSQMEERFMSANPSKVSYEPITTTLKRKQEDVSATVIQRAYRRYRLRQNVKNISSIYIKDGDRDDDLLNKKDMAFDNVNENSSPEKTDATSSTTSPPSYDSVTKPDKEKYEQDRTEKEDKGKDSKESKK

Row | Hu CYP3A4 mRNA Induction (10 uM POC) (CYP3A4) [%] | IC50 (Human Nav1.7) [nM] | SMILES
1 | 88 | 10 | COc1cc(C2CCC2)c(Cl)cc1-n1c(=O)ccc2cc(S(=O)(=O)Nc3ncco3)ccc21 (atropisomer, axis not shown; (P)) [Example 32, (P)-1-(5-chloro-4-cyclobutyl-2-methoxyphenyl)-N-(oxazol-2-yl)-2-oxo-1,2-dihydroquinoline-6-sulfonamide]
2 | 36 | 17 | COc1cc([C@H]2C[C@H](C(F)(F)F)C2)c(F)cc1-n1c(=O)ccc2cc(S(=O)(=O)Nc3ncccn3)ccc21 (atropisomer, axis not shown; (P)) [Example 15, trans-(P)-1-(5-fluoro-2-methoxy-4-(3-(trifluoromethyl)cyclobutyl)phenyl)-2-oxo-N-(pyrimidin-2-yl)-1,2-dihydroquinoline-6-sulfonamide]
3 | – | 13 | COc1cc(C2CCC2)c(F)cc1-n1c(=O)ccc2cc(S(=O)(=O)Nc3ncco3)ccc21 (atropisomer, axis not shown; (P)) [Example 24, (P)-1-(4-cyclobutyl-5-fluoro-2-methoxyphenyl)-N-(oxazol-2-yl)-2-oxo-1,2-dihydroquinoline-6-sulfonamide]
4 | 6.6 | 8 | COc1cc([C@H]2C[C@H](C(F)(F)F)C2)c(F)cc1-n1c(=O)ccc2c(F)c(S(=O)(=O)Nc3ccon3)ccc21 (atropisomer, axis not shown; (P)) [Example 46, trans-(P)-5-fluoro-1-(5-fluoro-2-methoxy-4-(3-(trifluoromethyl)cyclobutyl)phenyl)-N-(isoxazol-3-yl)-2-oxo-1,2-dihydroquinoline-6-sulfonamide]
5 | – | 28 | COc1cc(C2CCC2)c(C)cc1-n1c(=O)ccc2cc(S(=O)(=O)Nc3ncco3)ccc21 (atropisomer, axis not shown; (P)) [Example 34, (P)-1-(4-cyclobutyl-2-methoxy-5-methylphenyl)-N-(oxazol-2-yl)-2-oxo-1,2-dihydroquinoline-6-sulfonamide]
6 | – | 10 | COc1cc([C@H]2C[C@H](C(F)(F)F)C2)c(Cl)cc1-n1c(=O)ccc2cc(S(=O)(=O)Nc3ncco3)ccc21 (atropisomer, axis not shown; (P)) [Example 49, trans (P)-1-(5-chloro-2-methoxy-4-((1R,3R)-3-(trifluoromethyl)cyclobutyl)phenyl)-N-(oxazol-2-yl)-2-oxo-1,2-dihydroquinoline-6-sulfonamide]
7 | – | 102 | COc1cc(C2CCC2)c(F)cc1-n1c(=O)ccc2cc(S(=O)(=O)Nc3cccnn3)ccc21 (atropisomer, axis not shown; (P)) [Example 23, (P)-1-(4-cyclobutyl-5-fluoro-2-methoxyphenyl)-2-oxo-N-(pyridazin-3-yl)-1,2-dihydroquinoline-6-sulfonamide]
8 | – | 12 | COc1cc(C2CCC2)c(Cl)cc1-n1c(=O)ccc2cc(S(=O)(=O)Nc3ccon3)ccc21 (atropisomer, axis not shown; (P)) [Example 21, (P)-1-(5-chloro-4-cyclobutyl-2-methoxyphenyl)-N-(isoxazol-3-yl)-2-oxo-1,2-dihydroquinoline-6-sulfonamide]

Row | SMILES | Hu CYP3A4 mRNA Induction (10 uM POC) (CYP3A4) [%] | IC50 (Human Nav1.7) [nM]
9 | COc1cc([C@H]2C[C@H](C(F)(F)F)C2)c(C)cc1-n1c(=O)ccc2cc(S(=O)(=O)Nc3ncccn3)ccc21 (atropisomer, axis not shown; (P)) [Example 37, trans-(P)-1-(2-methoxy-5-methyl-4-(3-(trifluoromethyl)cyclobutyl)phenyl)-2-oxo-N-(pyrimidin-2-yl)-1,2-dihydroquinoline-6-sulfonamide] | 49.51 | –
